Patent US6515025B2, “Use of ethynyl alanine amino diol compounds to inhibit enzymatic conversion of angiotensinogen to angiotensin I” (Pharmacia Corporation, priority 1991, dated 2003)
Read-outs that look alike come from different tables or passages of the source.

Experiment: Oral bioavailability studies in marmosets (plasma concentration by bioassay)
Format: in vivo
Details: plasma
Protocol: The bioavailability in marmosets and dogs was determined by sampling the blood via the femoral vein at various time points after administering the renin inhibitor compounds of the invention in polyethylene glycol 400 at an intragastric dose of 10 mg/kg or at an intravenous dose of 1 mg/kg. Compound concentration in plasma was determined using the bioassay technique described below. The percent bioavailability was calculated by dividing the area under the concentration-vs.-time curve obtained from the intragastric experiment by the area under the concentration-vs.-time curve obtained from the intravenous experiment (adjusting for different doses), and multiplying the result by 100%. The bioavailibility of Example 1 compound is 27% in marmosets and 33% in dogs.
Renin inhibitor plasma concentrations were determined by a bioassay. The plasma samples were extracted with acetonitrile and the extract was evaporated to dryness under nitrogen. Residue was dissolved in 4% bovine serum albumin containing 0.9% NaCl and 5% EDTA. The dissolved residue (0.1 ml) was incubated with a reaction mixture containing human plasma (0.12 ml), 5% phenylmethysulfonylfluoride (1.2 ul), 10% neomycin (2.4 ul), 0.5 M TES buffer (pH 7.4, 24 ul), and 0.6 mU/ml recombinant human renin (1000 U/mg, 50 ul) at 37° C. for 90 minutes. The renin activity was determined by a standard angiotensin I radioimmunoassay (New England Nuclear Corp.). The amount of test compound in the plasma was determined by comparing the extent of inhibition of renin activity with that produced by a known amount of test compound added to plasma and analyzed above.

[1] = marmoset, iv, 1 mg/kg, marmoset, IV at 1 mg/kg, Test Run D table, read-out: Plasma Concentrations, Mean ± SE
[2] = marmoset, iv, 1 mg/kg, marmoset, IV at 1 mg/kg, Test Run C, individual animals, read-out: Plasma Concentrations
[3] = marmoset, iv, 1 mg/kg, marmoset, IV at 1 mg/kg, Test Run D, individual animals, read-out: Plasma Concentrations
[4] = marmoset, oral, 10 mg/kg, marmoset, IG at 10 mg/kg, Test Run B, read-out: Plasma Concentrations, Mean ± SE
[5] = marmoset, oral, 10 mg/kg, marmoset, IG at 10 mg/kg, Test Run A, individual animals, read-out: Plasma Concentrations
[6] = marmoset, oral, 10 mg/kg, marmoset, IG at 10 mg/kg, Test Run B, individual animals, read-out: Plasma Concentrations

## C#CC[C@H](NC(=O)C(CC(=O)N(C)CCN(C)C)Cc1ccccc1)C(=O)NC(CC1CCCCC1)[C@@H](O)C(O)CC(C)C (relative stereo) [Example 1, N1-[1R*-[[[1S,1R*-(cyclohexylmethyl)-2S*,3R*-dihydroxy-5-methylhexyl]amino]carbonyl]-3-butynyl]-N4-[2-(dimethylamino)ethyl]-N4-methyl-2S*-(phenylmethyl)butanediamide]
[1]
  concentration at 30 min: 4940 ± 1510 ng/mL
  concentration at 1 h: 2430 ± 326 ng/mL
  concentration at 2 h: 1240 ± 271 ng/mL
  concentration at 3 h: 578 ± 90 ng/mL
  concentration at 4 h: 691 ± 160 ng/mL
  concentration at 6 h: 176 ± 31 ng/mL
[2]
  concentration at 2 min: 13700 ng/mL
  concentration at 30 min: 5860 ng/mL
  concentration at 1 h: 3090 ng/mL
  concentration at 3 h: 486 ng/mL
  concentration at 6 h: 264 ng/mL
[3]
  concentration at 2 min: 4200 ng/mL
  concentration at 30 min: 1950 ng/mL
  concentration at 2 h: 554 ng/mL
  concentration at 6 h: 95 ng/mL
[4]
  concentration at 30 min: 4990 ± 1750 ng/mL
  concentration at 1 h: 3840 ± 1820 ng/mL
  concentration at 2 h: 3960 ± 2000 ng/mL
  concentration at 3 h: 4510 ± 939 ng/mL
  concentration at 4 h: 3360 ± 1730 ng/mL
  concentration at 6 h: 3430 ± 457 ng/mL
  concentration at 8 h: 2610 ± 400 ng/mL
marmoset, oral, 10 mg/kg, marmoset, IG at 10 mg/kg, 5 hr, Test Run B, read-out: Plasma Concentrations, Mean ± SE
  concentration at 5 h: 2460 ± 1170 ng/mL
[5]
  concentration at 30 min: 9860 ng/mL
  concentration at 1 h: 1340 ng/mL
  concentration at 2 h: 1560 ng/mL
  concentration at 3 h: 7050 ng/mL
  concentration at 6 h: 4910 ng/mL
  concentration at 8 h: 3570 ng/mL
[6]
  concentration at 30 min: 1340 ng/mL
  concentration at 6 h: 2860 ng/mL
  concentration at 8 h: 1800 ng/mL
marmoset, oral, marmosets, IG 10 mg/kg vs IV 1 mg/kg
  bioavailability: 27%
monkey, marmosets, read-out: terminal half-life (converted)
  half-life: 1.5 h
monkey, marmosets, read-out: volume of distribution
  Vd: 0.2 L/kg
